Experimental data as given in patent US10849865B2, “Method of reducing neuronal cell death with haloalkylamines” (THE UNIVERSITY OF MONTANA, priority 2013, dated 2020).
“Also recorded” adds a separate entry of the source.

How the values were obtained:
[1] = test system: rat lateral fluid percussion injury (LFP) model of severe TBI; test: Morris water maze (MWM) cognitive function after severe TBI; assay type: in vivo
Procedure: The Morris water maze (MWM) was used to assess the impact of phenoxybenzamine on cognitive function (learning and memory) following TBI. […] Pre-acclimation began on day 24 post-TBI. The training phase began on day 25 post-injury, and the probe trial was conducted on day 30 post-injury.

MyD88 = test: Gene array analysis of cortical tissue after severe TBI: MyD88; conditions: 32 hours after the injury (treatment at 8 hours + 24 hours); versus uninjured controls
Excerpt: (§2) For experiments requiring TBI, a rat model was used. Male Wistar rats (350-500 g) were obtained from Charles River Laboratories (Wilmington, Mass.) and housed with a 12-hour light/dark cycle and ad libitum access to food and water. Severe TBI was induced using the lateral fluid percussion (LFP) procedure as previously described (Rau et al., 2012, J Trauma and Acute Care Surgery 73:S165). Briefly, a 5 mm trephination was made over the right hemisphere equidistant from the lambda and the bregma. Animals were given a fluid pulse to the brain at 1.9-2.3 atm of pressure for 20 msec. All animals experienced apnea and were manually ventilated until normal breathing occurred. […] Saline treated animals underwent the same tail vein injection procedure receiving only pre-warmed saline.
(§3) This time point was chosen in an effort to detect possible gene changes that would affect the development of secondary damage.

CCL2 = test: Gene array analysis of cortical tissue after severe TBI: CCL2; conditions: 32 hours after the injury (treatment at 8 hours + 24 hours); versus uninjured controls
Excerpt: as §2, §3

IL-1β = test: Gene array analysis of cortical tissue after severe TBI: IL-1β; conditions: 32 hours after the injury (treatment at 8 hours + 24 hours); versus uninjured controls
Excerpt: as §2, §3

[2] = test system: α-1 and α-2 adrenergic receptors; conditions: following intravenous administration; cited from earlier work
[3] = stuffy nose, mild drowsiness, blurred vision, and upset stomach; cited from earlier work
[4] = test system: rat lateral fluid percussion injury (LFP) model of severe TBI; test: Neurological severity scoring (NSS) after severe TBI (lateral fluid percussion); assay type: in vivo
Procedure: Assessments were conducted on days 1, 7, 14, 21, and 30 by a blinded observer. Animals were scored from 0-16 with 0 indicating no impairment, and 16 indicating maximal impairment. Scoring criteria for a severe TBI was 16-10, a moderate TBI was 9-5 and a mild TBI was 4-1. Animals scoring and NSS of 9 or less on day 1 were identified as having a moderate/mild injury and were excluded.
(§1) We selected the test dose for phenoxybenzamine based on current FDA approved levels. […] Assuming a typical adult weighs 70 kg, this represents 1.7 mg/kg body weight. Therefore, we selected a slightly lower, single, intravenous dose of 1 mg/kg body weight. This dose was administered at the clinically relevant time point of 8 hours after severe TBI. Therapeutic effectiveness was determined based on behavioral and cognitive outcomes.

[5] = test system: rat lateral fluid percussion injury (LFP) model of severe TBI; test: Foot fault assessment after severe TBI (lateral fluid percussion); assay type: in vivo
Procedure: Briefly, rats were set on an elevated grid. With each weight-bearing step, the paw may fall or slip off the wire grid. Each time the left forelimb (affected by damage to the right hemisphere) missed a placement on the wire rack it was recorded as a foot fault. The total number of steps (movement of each forelimb) that the rat used to cross the grid was counted, and the total numbers of foot faults for each forelimb was recorded.
as §1

calmodulin (CaM)/CaMKII = calmodulin (CaM)/CaMKII (Homo sapiens, UniProt P0DP23); conditions: cited from earlier work
[6] = test system: rat hippocampal slice cultures exposed to oxygen-glucose deprivation (OGD); test: Rat hippocampal slice culture oxygen-glucose deprivation (RHSC-OGD) model, propidium iodide staining; assay type: cell-based
Procedure: All experimental animal procedures were approved by the University of Montana Institutional Animal Care and Use Committee in accordance with National Institutes of Health guide for the care and use of Laboratory animals (NIH Publications No. 8023). Hippocampal slice cultures were prepared from the brains of 7-day-old Sprague-Dawley rat pups as previously described (Selkirk et al., 2005, Eur J Neur 21:2291). After 7 days in culture, slices were exposed to oxygen-glucose deprivation (OGD). A glucose free balanced salt solution (BSS) composed of 120 mM NaCl, 5 mM KCl, 1.25 mM NaH2PO4, 2 mM MgSO4, 2 mM CaCl2, 25 mM NaHCO3, 20 mM HEPES, 25 mM sucrose; pH 7.3 was bubbled for one hour with 5% CO2/95% N2 at 10 L/hour. Slices were washed 6 times in deoxygenated SBSS to remove residual glucose, transferred into deoxygenated SBSS, and placed in a 37° C. chamber (Pro-Ox) with an oxygen feedback sensor that maintained gas levels at 0.1% O2, 5% CO2, 94.4% Nitrogen for 60 min. After OGD, the slices were immediately transferred back into pre-warmed Neurobasal media (containing B27 without anti-oxidants) under normal oxygen conditions. […] Neuronal damage was determined by staining slices with propidium iodide (PI; Molecular Probes, Eugene, Oreg.) and quantifying the relative fluorescence intensity (excitation 540/emission 630) using ImagePro Plus software (Media Cybernetics, Silver Springs, Md.). Propidium iodide […] was added to the media at a concentration of 2 μM (Noraberg et al., 1999, Brain Research Protocols 3:278), 4 hours prior to OGD. Images were taken of the hippocampal slices prior to OGD to establish baseline fluorescence. After OGD, slices were placed in normal media containing 2 μM PI and imaged again at 24 hours post-OGD using fluorescence optics with an Olympus IMT-2 microscope and a Hamamatsu camera. The total fluorescent intensity in each slice was determined using ImagePro Plus software (Media Cybernetics, Silver Springs, Md.) and all values were expressed as the percent change from untreated slices exposed to OGD.

[7] = test system: α-1 and α-2 adrenergic receptors; conditions: with secondary α-2 antagonism; cited from earlier work
α-1 receptors = conditions: 8 days after a single administration; cited from earlier work
[8] = administered 8 hours after TBI, probe trial day 30 post-injury
[9] = 1 mg/kg body weight, over 30 days after TBI
[10] = 1 mg/kg i.v. 8 hours after severe TBI, 24 hours or 7 days after the TBI

With CC(COc1ccccc1)N(CCCl)Cc1ccccc1 (stereo not shown) [phenoxybenzamine] the “learning and memory after severe TBI (FIG. 4)” value ([1]; Morris water maze latency and target quadrant time) was “significantly improved learning and memory”, the “MWM learning compared to un-injured sham controls” value ([1]; administered 8 hours after TBI, any of the training days) was “not significantly different from the un-injured sham control animals” and the “MWM probe trial compared to un-injured sham controls” value [1, 8] was “did not differ from un-injured sham controls”. The “MWM probe trial, time spent searching the target quadrant” value [1, 8] was “approximately 28%”, the “MyD88 expression in cortical tissue after severe TBI” value (MyD88) was “no significant increase; also recorded: did not differ from uninjured controls; also recorded: equivalent to uninjured controls” and the “CCL2 expression in cortical tissue after severe TBI” value (CCL2) was “no significant increase; also recorded: did not differ from uninjured controls”. The “IL-1β expression in cortical tissue after severe TBI” value (IL-1β) was “no significant increase; also recorded: did not differ from uninjured controls; also recorded: did not have a significant increase”, the “time to peak effect of receptor antagonism” value [2] was “approximately 1 hour” and the side effects [3] was “minimal”. The “behavioral function, neurological severity score (FIG. 3A)” value [4, 9] was “significantly improved behavioral function”, the “NSS, difference from saline treated animals” value [4, 10] was “no significant differences” and the “behavioral function, foot fault assessments (FIG. 3B)” value [5, 9] was “significantly improved behavioral function”. For the same compound, the “foot fault scoring, difference from saline treated animals” value [5, 10] was “no significant differences”, the “inhibition of CaM/CaMKII activity” value (calmodulin (CaM)/CaMKII) was “potent inhibitor” and the “prevention of neuronal death from OGD (propidium iodide fluorescence)” value ([6]; 100 μM added at 2, 4, and 8 hours post-OGD) was “prevented neuronal death from OGD in all regions of the hippocampus”. The “prevention of neuronal death from OGD (propidium iodide fluorescence)” value ([6]; 100 μM added at 16 hours post-OGD) was “prevented neuronal death only in the CA1 region of the hippocampus”, the “neuroprotection when delivered after OGD (FIG. 2)” value ([6]; delivered up to 16 hours after OGD) was “significant neuroprotection” and the α-1 adrenergic antagonism [7] was “potent α-1 adrenergic antagonist”. The α-1 receptors recovered (α-1 receptors) was 50%.
